Reference: ChEMBL document CHEMBL4616601, “Meeting organometallic chemistry with drug discovery: CH activation enabled discovery of a new ring system of 12H-Indazolo[2,1-a]cinnolin-12-ones with anti-proliferation activity” (Bioorg Med Chem Lett, 2020)
Calls of active or inactive are those of the source. The rule behind the calls is not given here.

Test system: PC-3
Test: Antiproliferative activity against human PC3 cells assessed as inhibition of cell viability at 0.5 to 5 uM after 72 hrs by CCK8 assay
Format: functional, cell-based
Settings: not given

| Structure (SMILES) | Activity |
| --- | --- |
| CCOC(=O)c1c(-c2ccc(C)cc2)n2c3ccccc3c(=O)n2c2ccccc12 | Active |
| O=C1CCCc2c1c1ccccc1n1c(=O)c3ccccc3n21 | Active |
| CCOC(=O)c1c(-c2ccccc2)n2c3ccccc3c(=O)n2c2ccc(I)cc12 | Active |
| COC(=O)c1c(C)n2c3ccccc3c(=O)n2c2cc3ccccc3cc12 | Active |
| O=C(OCCO)c1c(-c2ccccc2)n2c3ccccc3c(=O)n2c2ccccc12 | inactive |
| CCOC(=O)c1c(-c2ccccc2)n2c3ccc(F)cc3c(=O)n2c2ccccc12 | Active |
| COc1ccc2c(c1)c1c(n3c4ccccc4c(=O)n23)CCCC1=O | Active |
| CCOC(=O)c1c(-c2ccccc2)n2c3ccccc3c(=O)n2c2ccc(Cl)cc12 | Active |
| CCOC(=O)c1c(C)n2c3ccccc3c(=O)n2c2ccc(Cl)cc12 | Active |
| CCOC(=O)c1c(-c2ccccc2)n2c3ccccc3c(=O)n2c2ccc(C)cc12 | Active |
| CCOC(=O)c1c(C)n2c3ccc(OC)cc3c(=O)n2c2ccccc12 | Active |
| O=C1CCc2c1c1c3c(ccc1n1c(=O)c4ccccc4n21)OCO3 | Active |
| COc1ccc2c(c1)c1c(n3c4ccccc4c(=O)n23)CCC1=O | Active |
| CCOC(=O)c1c(-c2ccccc2)n2c3ccccc3c(=O)n2c2cc(OC)cc(OC)c12 | Active |
| COC(=O)c1c(C)n2c3ccccc3c(=O)n2c2cc(OC)c(OC)c(OC)c12 | Active |
| CCOC(=O)c1c(-c2ccccc2)n2c3ccccc3c(=O)n2c2ccc(N3CCOCC3)cc12 | Active |
| CCOC(=O)c1c(C)n2c3ccccc3c(=O)n2c2ccc(OC)cc12 | Active |
| COc1cc(OC)c2c3c(n4c5ccccc5c(=O)n4c2c1)CCC3=O | Active |
| CCOC(=O)c1c(-c2ccc(I)cc2)n2c3ccccc3c(=O)n2c2ccccc12 | Active |
| COP(=O)(OC)c1c(C)n2c3ccccc3c(=O)n2c2ccccc12 | inactive |
| COC(=O)c1c(C)n2c3ccccc3c(=O)n2c2c(F)cccc12 | Active |
| O=C1CCc2c1c1cc(I)ccc1n1c(=O)c3ccccc3n21 | Active |
| CCc1c(C(=O)OC)c2ccccc2n2c(=O)c3ccccc3n12 | inactive |
| CCOC(=O)c1c(-c2ccccc2)n2c3ccccc3c(=O)n2c2ccc(-c3ccccc3)cc12 | Active |
| CCOC(=O)c1c(C)n2c3ccccc3c(=O)n2c2c(OC)cccc12 | Active |
| CCOC(=O)c1c(C)n2c3ccccc3c(=O)n2c2ccc(C)cc12 | Active |
| CCOC(=O)c1c(C)n2c3ccccc3c(=O)n2c2ccccc12 | Active |
| CCc1ccc2c(c1)c(C(=O)OC)c(C)n1c3ccccc3c(=O)n21 | Active |

| Structure (SMILES) | Activity |
| --- | --- |
| CCOC(=O)c1c(-c2ccccc2)n2c3ccccc3c(=O)n2c2ccc(F)cc12 | Active |
| CCOC(=O)c1c(C)n2c3ccccc3c(=O)n2c2ccc(F)cc12 | Active |
| CCOC(=O)c1c(-c2ccccc2)n2c3ccc(OC)cc3c(=O)n2c2ccccc12 | Active |
| COc1cccc2c3c(n4c5ccccc5c(=O)n4c12)CCC3=O | Active |
| CCOC(=O)c1c(-c2cccc(OC)c2)n2c3ccccc3c(=O)n2c2ccccc12 | Active |
| CCOC(=O)c1c(-c2ccccc2)n2c3ccccc3c(=O)n2c2ccc(C#N)cc12 | Active |
| CCOC(=O)c1c(-c2ccco2)n2c3ccccc3c(=O)n2c2ccccc12 | Active |
| CCOC(=O)c1c(C)n2c3ccccc3c(=O)n2c2ccc(Br)cc12 | Active |
| CCOC(=O)c1c(C)n2c3ccccc3c(=O)n2c2ccc(I)cc12 | Active |
| COC(=O)c1c(C2CC2)n2c3ccccc3c(=O)n2c2ccccc12 | inactive |
| O=C1CCc2c1c1cc(Cl)ccc1n1c(=O)c3ccccc3n21 | Active |
| O=C1CCc2c1c1cc(Br)ccc1n1c(=O)c3ccccc3n21 | Active |
| CCOC(=O)c1c(-c2ccc(F)cc2)n2c3ccccc3c(=O)n2c2ccccc12 | Active |
| COC(=O)c1c(C)n2c3ccccc3c(=O)n2c2ccccc12 | Active |
| CCOC(=O)c1c(C)n2c3ccccc3c(=O)n2c2cc(OC)cc(OC)c12 | Active |
| Cc1c(C(=O)OCCO)c2ccccc2n2c(=O)c3ccccc3n12 | inactive |
| CCOC(=O)c1c(-c2ccccc2)n2c3ccccc3c(=O)n2c2ccc(OC)cc12 | Active |
| CCOC(=O)c1c(-c2ccc(OC)cc2)n2c3ccccc3c(=O)n2c2ccccc12 | Active |
| COC(=O)c1c(C)n2c3ccccc3c(=O)n2c2ccc(OC(F)(F)F)cc12 | Active |
| COc1cc2c(c(OC)c1OC)c1c(n3c4ccccc4c(=O)n23)CCC1=O | Active |
| O=C1CCc2c1c1cccc(F)c1n1c(=O)c3ccccc3n21 | Active |
| O=C1NCCc2c1c1ccccc1n1c(=O)c3ccccc3n21 | Active |
| CCOC(=O)c1c(-c2ccccc2)n2c3ccccc3c(=O)n2c2ccc3c(c12)OCO3 | Active |
| O=C1CCCc2c1c1cc(F)ccc1n1c(=O)c3ccccc3n21 | Active |
| O=C1CCc2c1c1ccccc1n1c(=O)c3ccccc3n21 | Active |
| CCOC(=O)c1c(-c2ccccc2)n2c3ccccc3c(=O)n2c2ccc(Br)cc12 | Active |
| CCOC(=O)c1c(-c2ccccc2)n2c3ccccc3c(=O)n2c2ccccc12 | Active |

Test system: PC-3
Test: Antiproliferative activity against human PC3 cells at 0.5 uM assessed as inhibition of cell viability after 72 hrs by CCK-8 assay relative to control
Format: functional
Settings: PC-3, 72 h

| Structure (SMILES) | inhibition at 0.5 µM |
| --- | --- |
| CCOC(=O)c1c(-c2ccccc2)n2c3ccccc3c(=O)n2c2ccc3c(c12)OCO3 | 39.5% |

Test system: PC-3
Test: Antiproliferative activity against human PC3 cells assessed as reduction in cell viability after 72 hrs by CCK8 assay
Format: functional, cell-based
Settings: PC-3, 72 h

| IC50 | Structure (SMILES) |
| --- | --- |
| > 50000 nM | CCOC(=O)c1c(-c2ccccc2)n2c3ccccc3c(=O)n2c2ccc(Cl)cc12 |
| 475 nM | CCOC(=O)c1c(C)n2c3ccc(OC)cc3c(=O)n2c2ccccc12 |
| 7490 nM | CCOC(=O)c1c(-c2ccccc2)n2c3ccccc3c(=O)n2c2ccc(N3CCOCC3)cc12 |
| 3980 nM | CCOC(=O)c1c(-c2ccc(I)cc2)n2c3ccccc3c(=O)n2c2ccccc12 |
| 334 nM | COC(=O)c1c(C)n2c3ccccc3c(=O)n2c2c(F)cccc12 |
| 216 nM | CCOC(=O)c1c(C)n2c3ccccc3c(=O)n2c2c(OC)cccc12 |
| 1010 nM | COC(=O)c1c(C)n2c3ccccc3c(=O)n2c2ccccc12 |
| 2020 nM | CCOC(=O)c1c(-c2ccccc2)n2c3ccccc3c(=O)n2c2ccc(OC)cc12 |
| 5820 nM | CCOC(=O)c1c(-c2ccccc2)n2c3ccccc3c(=O)n2c2ccc3c(c12)OCO3 |

| Structure (SMILES) | IC50 |
| --- | --- |
| CC(C)[C@]12O[C@H]1[C@@H]1O[C@@]13[C@@]1(C)CCC4=C(COC4=O)[C@@H]1C[C@@H]1O[C@@]13C2=O [TRIPTONIDE] | 25 nM |

Test system: PANC-1
Test: Antiproliferative activity against human PANC1 cells assessed as reduction in cell viability after 72 hrs
Format: functional, cell-based
Settings: PANC-1, 72 h

| IC50 | Structure (SMILES) |
| --- | --- |
| > 50000 nM | CCOC(=O)c1c(-c2ccccc2)n2c3ccccc3c(=O)n2c2ccc(Cl)cc12 |
| 506 nM | CCOC(=O)c1c(C)n2c3ccc(OC)cc3c(=O)n2c2ccccc12 |
| 13800 nM | CCOC(=O)c1c(-c2ccccc2)n2c3ccccc3c(=O)n2c2ccc(N3CCOCC3)cc12 |
| 6820 nM | CCOC(=O)c1c(-c2ccc(I)cc2)n2c3ccccc3c(=O)n2c2ccccc12 |
| 528 nM | COC(=O)c1c(C)n2c3ccccc3c(=O)n2c2c(F)cccc12 |
| 116 nM | CCOC(=O)c1c(C)n2c3ccccc3c(=O)n2c2c(OC)cccc12 |
| 551 nM | COC(=O)c1c(C)n2c3ccccc3c(=O)n2c2ccccc12 |
| 4230 nM | CCOC(=O)c1c(-c2ccccc2)n2c3ccccc3c(=O)n2c2ccc(OC)cc12 |
| > 50000 nM | CCOC(=O)c1c(-c2ccccc2)n2c3ccccc3c(=O)n2c2ccc3c(c12)OCO3 |

| Structure (SMILES) | IC50 |
| --- | --- |
| CC(C)[C@]12O[C@H]1[C@@H]1O[C@@]13[C@@]1(C)CCC4=C(COC4=O)[C@@H]1C[C@@H]1O[C@@]13C2=O [TRIPTONIDE] | 47 nM |
